“And” between values parts separate entries of the source, which are not always exact repeats. Identical values can stand only once.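 How tested: cells in 96-well plates exposed to compound for 48 hours at five concentrations. Abbreviation: GI50, concentration required for 50% inhibition of growth. TGI: concentration producing complete growth inhibition.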
Tests used:
Assay in all cases: inhibition of tumour cell growth, NCI panel, 48 h
T-47D breast = system: T-47D breast
U251 CNS = system: U251 CNS
MDA-MB-435 = system: MDA-MB-435
MDA-MB-231 breast = system: MDA-MB-231 breast
COLO 205 colon = system: COLO 205 colon
KM12 colon = system: KM12 colon
HS 578T breast = system: HS 578T breast
PC-3 prostate = system: PC-3 prostate
MDA-N = system: MDA-N
RXF 393 renal = system: RXF 393 renal
OVCAR-5 ovarian = system: OVCAR-5 ovarian
DLD-1 colon = system: DLD-1 colon
XF 498 CNS = system: XF 498 CNS

With CC(C)(C)c1ccc(O)c(Br)c1 the TGI (T-47D breast) was > 100 µM, the TGI (U251 CNS) was > 100 µM and the TGI (MDA-MB-435) was > 100 µM. The TGI (MDA-MB-231 breast) was > 100 µM, the TGI (COLO 205 colon) was > 100 µM and the TGI (KM12 colon) was > 100 µM. For the same compound, the TGI (HS 578T breast) was > 100 µM, the TGI (PC-3 prostate) was > 100 µM and the TGI (MDA-N) was > 100 µM. The TGI (RXF 393 renal) was > 100 µM and the TGI (OVCAR-5 ovarian) was > 100 µM.
Clc1ccc(NCc2nnc(COc3ccc(OCc4nnc(CNc5ccc(Cl)cc5)o4)c(Cl)c3)o2)cc1 was tested, and the TGI (T-47D breast) was > 100 µM, the TGI (U251 CNS) was > 100 µM and the TGI (MDA-MB-435) was > 100 µM. The TGI (MDA-MB-231 breast) was 63.3 µM, the TGI (COLO 205 colon) was 25.9 µM and the TGI (KM12 colon) was > 100 µM. The TGI (HS 578T breast) was > 100 µM, the TGI (PC-3 prostate) was > 100 µM and the TGI (MDA-N) was > 100 µM. The TGI (RXF 393 renal) was > 100 µM and the TGI (OVCAR-5 ovarian) was > 100 µM.
CC(C)(C)OC(=O)N1C[C@H](CC(=O)OCc2ccccc2)C[C@H]1C(=O)OCC(Cl)(Cl)Cl was tested, and the TGI (T-47D breast) was > 50 µM, the TGI (U251 CNS) was 16.1 µM and the TGI (MDA-MB-435) was > 50 µM. The TGI (MDA-MB-231 breast) was > 50 µM, the TGI (COLO 205 colon) was 9.38 µM and the TGI (KM12 colon) was > 50 µM. The TGI (HS 578T breast) was > 50 µM, the TGI (PC-3 prostate) was > 50 µM and the TGI (RXF 393 renal) was > 50 µM. For the same compound, the TGI (OVCAR-5 ovarian) was > 50 µM.
With COC1OC(C(=O)CP(=O)(OC)OC)C(OCc2ccccc2)C(OCc2ccccc2)C1OCc1ccccc1 (stereo not drawn) the TGI (T-47D breast) was 39.6 µM and 43.7 µM, the TGI (U251 CNS) was 29 µM and 30.3 µM and the TGI (MDA-MB-435) was 31.8 µM and 35.9 µM. The TGI (MDA-MB-231 breast) was 31.7 µM and 29.9 µM, the TGI (COLO 205 colon) was 32.7 µM and 33.5 µM and the TGI (KM12 colon) was 36.6 µM and 35.7 µM. The TGI (HS 578T breast) was 63.4 µM and 74.8 µM, the TGI (PC-3 prostate) was 28.1 µM and 28.7 µM and the TGI (MDA-N) was 29.8 µM and 30.8 µM. The TGI (RXF 393 renal) was 26.3 µM and 29.5 µM and the TGI (OVCAR-5 ovarian) was 29.2 µM and 31.8 µM.
Work on O=C(CSc1nc2ccc(Cl)cc2c(=O)n1-c1ccccc1)N=Nc1c(O)[nH]c2ccc(F)cc12 yielded a TGI (T-47D breast) of 4.8 µM, a TGI (U251 CNS) of 3.27 µM and a TGI (MDA-MB-435) of 5.69 µM. For the same compound, the TGI (MDA-MB-231 breast) was 5.82 µM, the TGI (COLO 205 colon) was 4.81 µM and the TGI (KM12 colon) was 11.8 µM. The TGI (HS 578T breast) was > 27 µM, the TGI (PC-3 prostate) was 6.82 µM and the TGI (MDA-N) was 7.53 µM. It also gave a TGI (RXF 393 renal) of 4.26 µM and a TGI (OVCAR-5 ovarian) of 9.01 µM.
For CCOC(=O)C(=CNC(Cc1c[nH]c2ccccc12)C(=O)OC)C(=O)OCC (stereo not drawn), the TGI (DLD-1 colon) was > 100 µM, the TGI (U251 CNS) was > 100 µM and the TGI (XF 498 CNS) was > 100 µM. The TGI (COLO 205 colon) was > 100 µM.
In the case of CCN(CC)/[N+]([O-])=N/OC, the TGI (U251 CNS) is reported as > 100 µM, the TGI (XF 498 CNS) is reported as > 100 µM and the TGI (KM12 colon) is reported as > 100 µM. For the same compound, the TGI (RXF 393 renal) was > 100 µM and the TGI (OVCAR-5 ovarian) was > 100 µM.
C=C1CCCC(C)(C)[C@@H]1CC/C(C)=C/Cn1c2cccc(=O)c-2nc2ccccc21 was tested, and the GI50 (DLD-1 colon) was 4.86 µM, the GI50 (U251 CNS) was 10.7 µM and the GI50 (XF 498 CNS) was 2.8 µM. For the same compound, the GI50 (COLO 205 colon) was 23.8 µM, the GI50 (KM12 colon) was 7.96 µM and the TGI (KM12 colon) was 45.4 µM and 10.4 µM. The GI50 (OVCAR-5 ovarian) was 27.1 µM.
For O=C(N/N=C\c1ccc([N+](=O)[O-])cc1)Nc1ccccc1, the TGI (T-47D breast) was > 100 µM, the TGI (U251 CNS) was > 100 µM and the TGI (MDA-MB-435) was > 100 µM. The TGI (COLO 205 colon) was > 100 µM, the TGI (KM12 colon) was > 100 µM and the TGI (HS 578T breast) was > 100 µM. For the same compound, the TGI (PC-3 prostate) was > 100 µM, the TGI (MDA-N) was > 100 µM and the TGI (RXF 393 renal) was > 100 µM. The TGI (OVCAR-5 ovarian) was > 100 µM.
COc1ccc(Cc2nc3cc(Cl)ccc3o2)cc1 was tested, and the TGI (T-47D breast) was 91.1 µM, the TGI (U251 CNS) was > 100 µM and the TGI (MDA-MB-435) was 69 µM. The TGI (MDA-MB-231 breast) was > 100 µM, the TGI (COLO 205 colon) was > 100 µM and the TGI (KM12 colon) was > 100 µM. For the same compound, the TGI (HS 578T breast) was > 100 µM, the TGI (PC-3 prostate) was > 100 µM and the TGI (MDA-N) was > 100 µM. The TGI (RXF 393 renal) was 70.2 µM and the TGI (OVCAR-5 ovarian) was > 100 µM.
In the case of Cn1c2c(c3c(=O)[nH]ncc31)CCc1ccccc1-2, the TGI (T-47D breast) is reported as > 100 µM, the TGI (U251 CNS) is reported as > 100 µM and the TGI (MDA-MB-435) is reported as > 100 µM. It also gave a TGI (MDA-MB-231 breast) of 47.3 µM, a TGI (COLO 205 colon) of 81.1 µM and a TGI (KM12 colon) of 54.9 µM. The TGI (HS 578T breast) was > 100 µM, the TGI (PC-3 prostate) was > 100 µM and the TGI (MDA-N) was 91 µM. The TGI (RXF 393 renal) was 39.6 µM and the TGI (OVCAR-5 ovarian) was > 100 µM.
NC(N)=NS(=O)(=O)c1ccc(Nc2c3ccccc3nc3c(C(=O)N4CCN(CCO)CC4)ccc(Cl)c23)cc1 was tested, and the TGI (DLD-1 colon) was > 100 µM, the TGI (U251 CNS) was > 100 µM and the TGI (XF 498 CNS) was > 100 µM. For the same compound, the TGI (COLO 205 colon) was > 100 µM, the TGI (KM12 colon) was > 100 µM and the TGI (RXF 393 renal) was > 100 µM. For the same compound, the TGI (OVCAR-5 ovarian) was > 100 µM.
With Cc1cc(O)c2c(c1O)C(=O)c1c(O)ccc(O)c1C2=O the TGI (T-47D breast) was > 100 µM, the TGI (U251 CNS) was > 100 µM and the TGI (MDA-MB-435) was > 100 µM. The TGI (MDA-MB-231 breast) was > 100 µM, the TGI (COLO 205 colon) was > 100 µM and the TGI (KM12 colon) was > 100 µM. For the same compound, the TGI (HS 578T breast) was > 100 µM, the TGI (PC-3 prostate) was > 100 µM and the TGI (MDA-N) was > 100 µM. The TGI (RXF 393 renal) was > 100 µM and the TGI (OVCAR-5 ovarian) was > 100 µM.
For Fc1cc(C2=C[C@H](c3ccc4c(c3)OCO4)NC(=S)N2)c(Cl)cc1Cl, the TGI (T-47D breast) was > 100 µM, the TGI (U251 CNS) was > 100 µM and the TGI (MDA-MB-435) was > 100 µM. The TGI (MDA-MB-231 breast) was > 100 µM, the TGI (COLO 205 colon) was 50.3 µM and the TGI (KM12 colon) was > 100 µM. The TGI (HS 578T breast) was > 100 µM, the TGI (PC-3 prostate) was 85.8 µM and the TGI (MDA-N) was > 100 µM. For the same compound, the TGI (RXF 393 renal) was > 100 µM and the TGI (OVCAR-5 ovarian) was > 100 µM.
O=CC(O)C(O)C(O)COc1cc(CO)cc2c1C(=O)c1ccccc1C2=O (stereo not drawn) was tested, and the TGI (DLD-1 colon) was > 100 µM, the TGI (U251 CNS) was > 100 µM and the TGI (XF 498 CNS) was > 100 µM. For the same compound, the TGI (COLO 205 colon) was > 100 µM, the TGI (KM12 colon) was > 100 µM and the TGI (RXF 393 renal) was > 100 µM. For the same compound, the TGI (OVCAR-5 ovarian) was > 100 µM.
With CCCCCCOC(=O)C(N)Cc1ccc(OC)cc1 (stereo not drawn) the TGI (T-47D breast) was > 100 µM, the TGI (U251 CNS) was > 100 µM and the TGI (MDA-MB-435) was > 100 µM. The TGI (MDA-MB-231 breast) was > 100 µM, the TGI (COLO 205 colon) was > 100 µM and the TGI (KM12 colon) was > 100 µM. For the same compound, the TGI (HS 578T breast) was > 100 µM, the TGI (PC-3 prostate) was > 100 µM and the TGI (RXF 393 renal) was > 100 µM. The TGI (OVCAR-5 ovarian) was > 100 µM.

Reference: PubChem BioAssay (NCI)
